Patent publication EP0304244A2, “Propanediol derivatives, their production and use” (Takeda Chemical Industries, Ltd., priority 1987, dated 1989)

Legend:
[1] = test system: Sarcoma 180 cells; assay: Antitumor action, subcutaneous Sarcoma 180 in mice, oral dosing, tumor weight; type: in vivo; settings: ICR mice, 1 x 10⁵ Sarcoma 180 cells in dorsal subcutis; 0.3 mg/mouse orally 9 times from the 8th day; tumor weighed on the 21st day
Experimental: ICR mice (a group consisting of 6 mice) were inoculated with 1 x 10⁵ Sarcoma 180 cells per mouse in the dorsal subcutis, and then 0.3 mg/mouse of a test compound dissolved in physiological saline was orally administered 9 times starting from the 8th day (8th to 10th, 13th to 17th and 20th days). On the 21st day, a tumor was enucleated, and the weight of the tumor was measured. The ratio of tumor weight of the treated group against that of the control group without treatment by drug is shown in Table 4.

[2] = test system: Sarcoma 180 cells; assay: Antitumor action, intraperitoneal Sarcoma 180 in mice, life-span and survivors; type: in vivo; settings: ICR mice, 1 x 10⁵ Sarcoma 180 cells i.p.; for Life-span prolonggation ratio (T/C,%): 0.33 mg/mouse i.p. three times (1 hour, 1 day, 2 days after inoculation), calculated only on died mice; for 60th day number of survivors/number of mice tested: 0.33 mg/mouse i.p. three times, 60th day after the initiation of the test
Experimental: ICR mice (a group consisting of 5 mice) were inoculated intraperitoneally with 1 x 10⁵ Sarcoma 180 cells per mouse. Then, 0.33 mg/mouse of a compound dissolved in physiological saline was intraperitoneally administered three times, i.e. 1 hour, 1 day and 2 days after the inoculation. Shown in Table 2 are the lifespan prolongation ratio against the control group without treatment and the number of surviving mice on the 60th day after the initiation of the test.

[3] = test system: HL-60 cells (myelogenous leukemia cell lines); assay: Inhibition of multiplication of HL-60 cells ([3H]thymidine incorporation); type: cell-based; settings: Homo sapiens; HL-60 cells 2 x 10⁵cells/mℓ in GIT medium; 20 hours incubation then 4 hours with [³H]thymidine; 50% of the control group; read-out: Inhibition of Propagation of HL-60 cells(IC₅₀ : µg/mℓ)
Experimental: The effect of the compound of this invention in inhibiting multiplication of myelogenous leukemia cells (HL-60) is shown in Table 1. The assay was conducted as follows. HL-60 cells (myelogenous leukemia cell lines) were suspended (2 x 10⁵cells/mℓ) in a GIT culture medium (Wako Pure Chemical Industries, Ltd.). Each hole of a 96-hole Microwell plate was inoculated with 0.2 mℓ of the suspension. The plate was incubated statically for 20 hours (37°C and 5% CO₂), to which was added 1 µCi of [³H]thymidine(5 Ci/mmol.), and the incubation was continued for further 4 hours. For determination of the amount of thymidine incorporated into cells, acid-insoluble fractions were collected with a glass-filter, and the radioactivity was determined by means of a liquid scintillation counter. The concentration of the drug required for reducing the radioactivity incorporated into cells to 50% of the control group was assumed to be IC₅₀ value of the compound.

[4] = test system: MM46 cells; assay: Antitumor action, intraperitoneal MM46 in mice, life-span and survivors; type: in vivo; settings: C3H/He mice, 1 x 10⁴ MM46 cells i.p.; 0.25 mg/mouse for 4 consecutive days from the second day after inoculation; 60th day after inoculation
Experimental: C3H/He mice (a group consisting of 5 mice) were inoculated intraperitoneally with 1 x 10⁴ MM46 cells per mouse, and given 0.25 mg/mouse of a drug for 4 consecutive days starting from the second day after the inoculation. Shown in Table 3 are the life-span prolongation ratio against the control group without treatment (provided that calculation was made on mice whose survival days were not longer than 60 days) and the number of surviving mice on the 60th day after the inoculation of MM46 cells.

Row | SMILES | IC50 [3] [µg/mL] | Weight of tumor (T/C,%) [1] [%] | Life-span prolonggation ratio (T/C,%) [2] [%] | 60th day number of survivors/number of mice tested [2] | 60th day No. of survivors/No. of mice tested [4]
1 | CCCCCCCCCCCCCCCCCCOCCCOCCCCCC[N+](C)(C)C.[Br-] [Compound of Working Example 3, 6-[3-(octadecyloxy)propoxy]hexyl-N,N,N-trimethylammonium bromide] | 1.25 | 24 | 342 | 2/5 | –
2 | CCCCCCCCCCCCCCCCCCOCCCOCCCCC[n+]1ccccc1.[Cl-] [Compound of Working Example 8, N-[5-[3-(octadecyloxy)propoxy]pentyl]pyridinium chloride] | 1.25 | – | – | – | –
3 | CCCCCCCCCCCCCCCCCCOCCCOCCCC[n+]1ccccc1.CS(=O)(=O)[O-] [Compound of Working Example 2, N-[4-[3-(octadecyloxy)propoxy]butyl]pyridinium methanesulfonate] | 0.62 | – | – | – | –
4 | CCCCCCCCCCCCCCCCCCOCCCOCCCC[N+](C)(C)C.CS(=O)(=O)[O-] [Compound of Working Example 1, N-[4-[3-(octadecyloxy)propoxy]butyl]N,N,N-trimethylammonium methanesulfonate] | 1.25 | – | 295 | 2/5 | 5/5

Further lines, with some results ahead:

Row | IC50 [3] [µg/mL] | SMILES | Weight of tumor (T/C,%) [1] [%] | Life-span prolonggation ratio (T/C,%) [2] [%] | 60th day number of survivors/number of mice tested [2] | 60th day No. of survivors/No. of mice tested [4]
5 | 5 | CCCCCCCCCCCCCCCCCCOCCCOCCCCCCCC[N+](C)(C)C.[Cl-] [Compound of Working Example 5, N-[8-[3-(octadecyloxy)propoxy]octyl]N,N,N-trimethylammonium chloride] | – | – | – | –
6 | 2.5 | CCCCCCCCCCCCCCCCCCOCCCOCCCCC[N+](C)(C)C.[Cl-] [Compound of Working Example 7, N-[5-[3-(octadecyloxy)propoxy]pentyl]N,N,N-trimethylammonium chloride] | – | – | – | –
7 | 1.25 | CCCCCCCCCCCCCCCCCCOCCCOCCC[N+](C)(C)C.[Br-] [Compound of Working Example 4, 3-[3-(octadecyloxy)propoxy]propyl-N,N,N-trimethylammonium bromide] | – | – | – | –
